From patent US9873709B2 (priority 2013, dated 2018)

tested on: JAK1-dependent STAT6 phosphorylation downstream of IL-13 stimulation in TF-1 human erythroleukemia cells; assay: cells; conditions: TF-1, read-out: IL-13-pSTAT6 IC50

SMILES | IC50
CN1CCN(CCCNC(=O)c2ccc(Nc3nc4c(N5CCC(O)(c6ccc(Cl)cc6)CC5)cccn4n3)cc2)CC1 [Example 1-96, 4-[[8-[4-(4-chlorophenyl)-4-hydroxy-1-piperidyl]-[1,2,4]triazolo[1,5-a]pyridin-2-yl]amino]-N-[3-(4-methylpiperazin-1-yl)propyl]benzamide] | 64.6 nM
O=C(NCCC1CCCNC1)c1ccc(Nc2nc3c(C4=CCN(C(=O)CCC(F)(F)F)CC4)cccn3n2)cc1 (stereo not shown) [Example 2-193, N-[2-(3-piperidyl)ethyl]-4-[[8-[1-(4,4,4-trifluorobutanoyl)-3,6-dihydro-2H-pyridin-4-yl]-[1,2,4]triazolo[1,5-a]pyridin-2-yl]amino]benzamide] | 278 nM
CCOC(=O)N1CC=C(c2cccn3nc(Nc4ccc(C(=O)NCCC5CCNCC5)cc4)nc23)CC1 [Example 2-13, ethyl 4-[2-[4-[2-(4-piperidyl)ethylcarbamoyl]anilino]-[1,2,4]triazolo[1,5-a]pyridin-8-yl]-3,6-dihydro-2H-pyridine-1-carboxylate] | 338 nM
CN1CCC(N(C)C(=O)c2ccc(Nc3nc4c(C5=CCN(C(=O)C6CC6(C)C)CC5)cccn4n3)cc2)CC1 (stereo not shown) [Example 2-160, 4-[[8-[1-(2,2-dimethylcyclopropanecarbonyl)-3,6-dihydro-2H-pyridin-4-yl]-[1,2,4]triazolo[1,5-a]pyridin-2-yl]amino]-N-methyl-N-(1-methyl-4-piperidyl)benzamide] | 47 nM
CCOC(=O)N1CC=C(c2cccn3nc(Nc4ccc(C(=O)N5CCC(CN)C5)cc4)nc23)CC1 (stereo not shown) [Example 2-130, ethyl 4-[2-[4-[3-(aminomethyl)pyrrolidine-1-carbonyl]anilino]-[1,2,4]triazolo[1,5-a]pyridin-8-yl]-3,6-dihydro-2H-pyridine-1-carboxylate] | 226 nM
O=C(CCC(F)(F)F)N1CC=C(c2cccn3nc(Nc4ccc(C(=O)N5CCO[C@@H]6CNC[C@H]65)cc4)nc23)CC1 [Example 2-448, 1-[4-[2-[4-[(4aR,7aR)-3,4a,5,6,7,7a-hexahydro-2H-pyrrolo[3,4-b][1,4]oxazine-4-carbonyl]anilino]-[1,2,4]triazolo[1,5-a]pyridin-8-yl]-3,6-dihydro-2H-pyridin-1-yl]-4,4,4-trifluoro-butan-1-one] | 120 nM
CCOC(=O)N1CC=C(c2cccn3nc(Nc4ccc(C(=O)N5CC(CN)C5)cc4)nc23)CC1 [Example 2-165, ethyl 4-[2-[4-[3-(aminomethyl)azetidine-1-carbonyl]anilino]-[1,2,4]triazolo[1,5-a]pyridin-8-yl]-3,6-dihydro-2H-pyridine-1-carboxylate] | 187 nM
CN1C2COCC1CN(C(=O)c1ccc(Nc3nc4c(C5=CCN(C(=O)CCC(F)(F)F)CC5)cccn4n3)cc1)C2 [Example 2-458, 4,4,4-trifluoro-1-[4-[2-[4-(9-methyl-3-oxa-7,9-diazabicyclo[3.3.1]nonane-7-carbonyl)anilino]-[1,2,4]triazolo[1,5-a]pyridin-8-yl]-3,6-dihydro-2H-pyridin-1-yl]butan-1-one] | 45.9 nM
CCOC(=O)N1CC=C(c2cccn3nc(Nc4ccc(C(=O)N(C)CCN)cc4)nc23)CC1 [Example 2-374, ethyl 4-[2-[4-[2-aminoethyl(methyl)carbamoyl]anilino]-[1,2,4]triazolo[1,5-a]pyridin-8-yl]-3,6-dihydro-2H-pyridine-1-carboxylate] | 62.5 nM

Now those with a lower IC50, led by results:

IC50 | SMILES
29.8 nM | CCOC(=O)N1CC=C(c2cccn3nc(Nc4ccc(C(=O)N5Cc6cccnc6C5)cc4)nc23)CC1 [Example 2-70, ethyl 4-[2-[4-(5,7-dihydropyrrolo[3,4-b]pyridine-6-carbonyl)anilino]-[1,2,4]triazolo[1,5-a]pyridin-8-yl]-3,6-dihydro-2H-pyridine-1-carboxylate]
15.6 nM | CN(Cc1ccncc1)C(=O)c1ccc(Nc2nc3c(N4CCC(O)(c5ccc(Cl)cc5)CC4)cccn3n2)cc1 [Example 1-111, 4-[[8-[4-(4-chlorophenyl)-4-hydroxy-1-piperidyl]-[1,2,4]triazolo[1,5-a]pyridin-2-yl]amino]-N-methyl-N-(4-pyridylmethyl)benzamide]
12.1 nM | CC(CN(C)C)NC(=O)c1ccc(Nc2nc3c(C4=CCN(C(=O)CCC(F)(F)F)CC4)cccn3n2)cc1 (stereo not shown) [Example 2-399, N-[2-(dimethylamino)-1-methyl-ethyl]-4-[[8-[1-(4,4,4-trifluorobutanoyl)-3,6-dihydro-2H-pyridin-4-yl]-[1,2,4]triazolo[1,5-a]pyridin-2-yl]amino]benzamide]
11.4 nM | O=C(CCC(F)(F)F)N1CC=C(c2cccn3nc(Nc4ccc(C(=O)N5CCCC(c6ccccn6)C5)cc4)nc23)CC1 (stereo not shown) [Example 2-341, 4,4,4-trifluoro-1-[4-[2-[4-[3-(2-pyridyl)piperidine-1-carbonyl]anilino]-[1,2,4]triazolo[1,5-a]pyridin-8-yl]-3,6-dihydro-2H-pyridin-1-yl]butan-1-one]
8.7 nM | CN1CCC(N(C)C(=O)c2ccc(Nc3nc4c(C5=CCN(C(=O)CCC(F)(F)F)CC5)cccn4n3)cc2)C1 (stereo not shown) [Example 2-267, N-methyl-N-(1-methylpyrrolidin-3-yl)-4-[[8-[1-(4,4,4-trifluorobutanoyl)-3,6-dihydro-2H-pyridin-4-yl]-[1,2,4]triazolo[1,5-a]pyridin-2-yl]amino]benzamide]
8.6 nM | O=C(CCC(F)(F)F)N1CC=C(c2cccn3nc(Nc4ccc(C(=O)N5CCN(CC6CC6)CC5)cc4)nc23)CC1 [Example 2-398, 1-[4-[2-[4-[4-(cyclopropylmethyl)piperazine-1-carbonyl]anilino]-[1,2,4]triazolo[1,5-a]pyridin-8-yl]-3,6-dihydro-2H-pyridin-1-yl]-4,4,4-trifluoro-butan-1-one]
6.5 nM | O=C(CCC(F)(F)F)N1CC=C(c2cccn3nc(Nc4ccc(C(=O)N5Cc6cccnc6C5)cc4)nc23)CC1 [Example 2-146, 1-[4-[2-[4-(5,7-dihydropyrrolo[3,4-b]pyridine-6-carbonyl)anilino]-[1,2,4]triazolo[1,5-a]pyridin-8-yl]-3,6-dihydro-2H-pyridin-1-yl]-4,4,4-trifluoro-butan-1-one]
5.1 nM | CC1CC(C)CN(CCNC(=O)c2ccc(Nc3nc4c(C5=CCN(C(=O)CCC(F)(F)F)CC5)cccn4n3)cc2)C1 (stereo not shown) [Example 2-269, N-[2-(3,5-dimethyl-1-piperidyl)ethyl]-4-[[8-[1-(4,4,4-trifluorobutanoyl)-3,6-dihydro-2H-pyridin-4-yl]-[1,2,4]triazolo[1,5-a]pyridin-2-yl]amino]benzamide]
4.7 nM | Cc1ncccc1CNC(=O)c1ccc(Nc2nc3c(C4=CCN(C(=O)CCC(F)(F)F)CC4)cccn3n2)cc1 [Example 2-42, N-[(2-methyl-3-pyridyl)methyl]-4-[[8-[1-(4,4,4-trifluorobutanoyl)-3,6-dihydro-2H-pyridin-4-yl]-[1,2,4]triazolo[1,5-a]pyridin-2-yl]amino]benzamide]
4.2 nM | O=C(CCC(F)(F)F)N1CC=C(c2cccn3nc(Nc4ccc(C(=O)N5CCCCC5Cc5ccccn5)cc4)nc23)CC1 (stereo not shown) [Example 2-265, 4,4,4-trifluoro-1-[4-[2-[4-[2-(2-pyridylmethyl)piperidine-1-carbonyl]anilino]-[1,2,4]triazolo[1,5-a]pyridin-8-yl]-3,6-dihydro-2H-pyridin-1-yl]butan-1-one]
